In ChEMBL document CHEMBL3860104, “Fragment-Based Approach to the Development of an Orally Bioavailable Lactam Inhibitor of Lipoprotein-Associated Phospholipase A2 (Lp-PLA2)” (J Med Chem, 2016):
≈ marks a conversion by molar mass, not a printed value.

How the values were obtained:
[1] = biological target: T1, Platelet-activating factor acetylhydrolase (Homo sapiens, UniProt Q13093)
T1 sequence (Q13093 whole entry): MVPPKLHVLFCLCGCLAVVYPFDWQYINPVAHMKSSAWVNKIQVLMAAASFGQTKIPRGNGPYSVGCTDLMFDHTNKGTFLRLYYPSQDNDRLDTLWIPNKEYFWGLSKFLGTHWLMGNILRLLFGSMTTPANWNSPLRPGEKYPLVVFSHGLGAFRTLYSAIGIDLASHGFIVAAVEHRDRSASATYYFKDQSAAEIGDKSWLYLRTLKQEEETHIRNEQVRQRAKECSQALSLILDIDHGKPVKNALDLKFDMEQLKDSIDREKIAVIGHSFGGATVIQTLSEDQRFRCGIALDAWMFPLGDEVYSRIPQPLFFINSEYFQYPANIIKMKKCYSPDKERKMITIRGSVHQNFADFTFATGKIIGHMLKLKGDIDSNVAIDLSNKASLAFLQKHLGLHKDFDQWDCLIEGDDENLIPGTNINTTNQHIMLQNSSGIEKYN
Description: Inhibition of recombinant human Lp-PLA2 pre-incubated for 30 mins before PED6 fluorogenic substrate

[2] = Solubility of the compound by quantitative NMR method; assay type: physicochemical
[3] = Half life in Beagle dog at 0.5/1 mg/kg, iv or 0.5 mg/kg, po by LC/MS-MS method; assay type: ADME, organism-based, Canis lupus familiaris; conditions: in vivo
[4] = Lipophilicity, log D of the compound by chromatography; assay type: physicochemical
Cytochrome P450 3A4 = Cytochrome P450 3A4 (Homo sapiens, UniProt P08684); assay: Inhibition of CYP3A4 (unknown origin) expressed in Escherichia coli co-expressing human NADPH reductase using both 7-benzyloxyquinolone and diethoxyfluorescein substrate in presence of NADPH regenerating system incubated for 10 mins by spectrofluorometry; assay type: ADME
Cytochrome P450 3A4, sequence (P08684 whole entry): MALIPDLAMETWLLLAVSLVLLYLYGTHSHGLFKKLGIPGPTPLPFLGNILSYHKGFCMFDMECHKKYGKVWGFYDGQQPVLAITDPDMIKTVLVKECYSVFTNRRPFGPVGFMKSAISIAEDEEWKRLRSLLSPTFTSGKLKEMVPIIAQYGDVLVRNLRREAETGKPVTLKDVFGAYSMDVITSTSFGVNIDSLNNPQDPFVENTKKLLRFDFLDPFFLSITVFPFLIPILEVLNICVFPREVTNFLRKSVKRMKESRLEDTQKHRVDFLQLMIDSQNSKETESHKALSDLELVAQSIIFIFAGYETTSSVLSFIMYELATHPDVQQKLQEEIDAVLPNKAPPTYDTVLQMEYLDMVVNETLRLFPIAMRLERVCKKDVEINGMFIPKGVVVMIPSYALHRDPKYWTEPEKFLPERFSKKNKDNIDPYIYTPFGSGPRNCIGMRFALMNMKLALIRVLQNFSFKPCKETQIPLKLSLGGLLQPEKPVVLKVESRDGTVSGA

[5] = Volume of distribution at steady state in Han Wistar rat at 1 mg/kg, iv or 3 mg/kg, po administered as bolus dose by LC/MS-MS method; assay type: ADME, organism-based; conditions: in vivo, read-out: Vdss
[6] = Clearance in Beagle dog at 0.5/1 mg/kg, iv or 0.5 mg/kg, po by LC/MS-MS method; assay type: ADME, organism-based, Canis lupus familiaris; conditions: in vivo
[7] = Protein binding in dog plasma at 10 uM incubated for 4 hrs by LC/MS-MS based rapid equilibrium dialysis method; assay type: ADME, cell-free, Canis lupus familiaris; conditions: read-out: PPB (converted)
[8] = Intrinsic clearance rat liver microsomes at 30 ug/mL pre-incubated for 7 mins before NADPH addition by LC/MS-MS method; assay type: ADME
[9] = Permeability at pH 7.4 by PAMPA method; assay type: ADME; conditions: read-out: permeability
[10] = Clearance in Han Wistar rat at 1 mg/kg, iv or 3 mg/kg, po administered as bolus dose by LC/MS-MS method; assay type: ADME, organism-based; conditions: in vivo
[11] = Volume of distribution at steady state in Beagle dog at 0.5/1 mg/kg, iv or 0.5 mg/kg, po by LC/MS-MS method; assay type: ADME, organism-based, Canis lupus familiaris; conditions: in vivo, read-out: Vdss
[12] = Solubility in pH 7.4 PBS by CLND assay
[13] = Protein binding in rat plasma at 10 uM incubated for 4 hrs by LC/MS-MS based rapid equilibrium dialysis method; assay type: ADME, cell-free; conditions: read-out: PPB (converted)
[14] = Half life in Han Wistar rat at 1 mg/kg, iv or 3 mg/kg, po administered as bolus dose by LC/MS-MS method; assay type: ADME, organism-based; conditions: in vivo
[15] = biological target: T1, Platelet-activating factor acetylhydrolase; remark: listed apart in the source
Description: Inhibition of recombinant human Lp-PLA2 incubated for 20 mins by Thio-PAF assay

[16] = biological target: T1, Platelet-activating factor acetylhydrolase; remark: listed apart in the source
Description: Inhibition of Lp-PLA2 in whole human plasma pre-incubated for 15 mins before 2-thio-PAF substrate addition

[17] = Oral bioavailability in Han Wistar rat at 3 mg/kg administered as bolus dose by LC/MS-MS method; assay type: ADME, organism-based; conditions: in vivo
[18] = Oral bioavailability in Beagle dog at 0.5 mg/kg by LC/MS-MS method; assay type: ADME, organism-based, Canis lupus familiaris; conditions: in vivo
[19] = Stability in rat blood assessed as compound remaining level; assay type: ADME, tissue-based

Question: Which IC50 [1] does the source give for `CN1CC(=O)N(CCOc2ccccc2)C1=O` here?
Answer: 1000 µM

Question: With `CC1(C)CN(CCOc2ccc(F)cc2)C(=O)N1` as the compound, how does the IC50 [1] read?
Answer: 39 µM

Question: With `CC1(C)CCC(=O)N(CCOc2ccc(F)cc2)C1` as the compound, how does the IC50 [1] read?
Answer: 10 µM

Question: With `O=C1NC2(CCCCC2)C(=O)N1CCOc1ccc(F)cc1` as the compound, how does the IC50 [1] read?
Answer: 14 µM

Question: With `CC1([C@@H]2CC(=O)N(CCOc3ccc(F)c(C#N)c3)C2)CCS(=O)(=O)CC1` as the compound, how does the solubility [2] read?
Answer: 3500 µM (≈ 1380 µg/mL)

Question: And the half-life [3]?
Answer: 1.3 h

Question: What about the chromatographic logD [4] of the same compound?
Answer: 3

Question: And the IC50 (Cytochrome P450 3A4)?
Answer: > 50 µM

Question: What about the Vd [5] of the same compound?
Answer: 1.2 L/kg

Question: What about the clearance [6] of the same compound?
Answer: 11 mL/min/kg

Question: And the fraction unbound at 4 h, 10 µM [7]?
Answer: 0.75

Question: What about the CLH [8] of the same compound?
Answer: 1.1 mL/min/g

Question: And the Papp [9]?
Answer: 3.6 ×10⁻⁶ cm/s

Question: And the clearance [10]?
Answer: 67 mL/min/kg

Question: What about the Vd [11] of the same compound?
Answer: 1.3 L/kg

Question: And the solubility kinetic [12]?
Answer: > 509 µM

Question: What about the fraction unbound at 4 h, 10 µM [13] of the same compound?
Answer: 0.8

Question: What about the half-life [14] of the same compound?
Answer: 0.34 h

Question: With `C[C@]1(c2ccccc2)CC(=O)N(CCOc2ccc(F)c(C#N)c2)C1` as the compound, how does the IC50 [15] read?
Answer: 1 µM

Question: Which results are given for `CC(C)[C@@]1(C)CC(=O)N(CCOc2ccc(F)c(C#N)c2)C1`?
Answer: IC50 [15]: 5.4 µM; IC50 [16]: 13 µM

Question: With `CN1C(=O)N(CCOc2ccccc2)C(=O)C1(C)C` as the compound, how does the IC50 [1] read?
Answer: 20 µM

Question: With `CC(C)[C@]1(C)CC(=O)N(CCOc2ccc(F)c(C#N)c2)C1` as the compound, how does the IC50 [15] read?
Answer: 2.3 µM

Question: And the IC50 [16]?
Answer: 6.2 µM

Question: Which chromatographic logD [4] does the source give for `CN1CCC(C)([C@H]2CC(=O)N(CCOc3ccc(F)c(C#N)c3)C2)CC1` here?
Answer: 1.7

Question: Which results are given for `CC1([C@@H]2CC(=O)N(CCOc3ccc(F)c(F)c3)C2)CCS(=O)(=O)CC1`?
Answer: chromatographic logD [4]: 3.4; IC50 (Cytochrome P450 3A4): > 50 µM; Papp [9]: 17 ×10⁻⁶ cm/s; IC50 [16]: 0.1 µM; IC50 [1]: 0.086 µM; solubility kinetic [12]: > 450 µM; fraction unbound at 4 h, 10 µM [13]: 0.7

Question: With `CC1(C)CC(=O)N(CCOc2ccc(F)cc2)C1` as the compound, how does the IC50 [1] read?
Answer: 11 µM

Question: With `CC1([C@H]2CC(=O)N(CCOc3ccc(F)c(C#N)c3)C2)CCS(=O)(=O)CC1` as the compound, how does the chromatographic logD [4] read?
Answer: 2.8

Question: What does the source list for `CC1(C)CC(=O)N(CCOc2ccc(F)c(C#N)c2)C1`?
Answer: IC50 [15]: 15 µM; IC50 [1]: 3 µM

Question: With `C[C@@]1(c2ccccc2)CC(=O)N(CCOc2ccc(F)c(C#N)c2)C1` as the compound, how does the IC50 [15] read?
Answer: 1.6 µM

Question: For `CN1CCC(C)(C2CC(=O)N(CCOc3ccc(F)c(C#N)c3)C2)CC1.Cl` (racemic), which bioavailability [17] is on record?
Answer: 52%

Question: What about the half-life [3] of the same compound?
Answer: 3.2 h

Question: And the Vd [5]?
Answer: 3.2 L/kg

Question: What about the clearance [6] of the same compound?
Answer: 8.6 mL/min/kg

Question: And the clearance [10]?
Answer: 24 mL/min/kg

Question: What about the bioavailability [18] of the same compound?
Answer: 76%

Question: And the Vd [11]?
Answer: 2.5 L/kg

Question: What about the half-life [14] of the same compound?
Answer: 1.8 h

Question: For `CN1CCC(C)(C2CC(=O)N(CCOc3ccc(F)c(C#N)c3)C2)CC1` (racemic), which IC50 (Cytochrome P450 3A4) is on record?
Answer: > 50 µM

Question: What about the fraction unbound at 4 h, 10 µM [7] of the same compound?
Answer: 0.56

Question: What about the Papp [9] of the same compound?
Answer: 21 ×10⁻⁶ cm/s

Question: And the solubility kinetic [12]?
Answer: > 396 µM

Question: What about the fraction unbound at 4 h, 10 µM [13] of the same compound?
Answer: 0.71

Question: Which IC50 [15] does the source give for `N#Cc1cc(OCCN2CC(c3ccccc3)CC2=O)ccc1F` (racemic) here?
Answer: 0.86 µM

Question: For `CC1(C2CC(=O)N(CCOc3ccc(F)cc3)C2)CCS(=O)(=O)CC1` (racemic), which chromatographic logD [4] is on record?
Answer: 3.1

Question: And the IC50 [16]?
Answer: 1.5 µM

Question: And the IC50 [1]?
Answer: 0.76 µM

Question: Which results are given for `CC1(C2CC(=O)N(CCOc3ccc(F)c(F)c3)C2)CCS(=O)(=O)CC1` (racemic)?
Answer: bioavailability [17]: 47%; chromatographic logD [4]: 3.4; Vd [5]: 0.63 L/kg; clearance [10]: 22 mL/min/kg; IC50 [16]: 0.29 µM; IC50 [1]: 0.16 µM; half-life [14]: 0.35 h

Question: For `CC(C)C1CC(=O)N(CCOc2ccc(F)c(C#N)c2)C1` (racemic), which IC50 [15] is on record?
Answer: 1.9 µM

Question: With `CC(C)C1(C)CC(=O)N(CCOc2ccc(F)c(C#N)c2)C1` (racemic) as the compound, how does the IC50 [15] read?
Answer: 2 µM

Question: What does the source list for `CC(=O)N1CCC(C)(C2CC(=O)N(CCOc3ccc(F)c(C#N)c3)C2)CC1` (racemic)?
Answer: chromatographic logD [4]: 2.9; IC50 [16]: 0.66 µM; IC50 [1]: 0.25 µM

Question: Which results are given for `CC1(C2CC(=O)N(CCOc3ccc(F)c(C#N)c3)C2)CCOCC1` (racemic)?
Answer: chromatographic logD [4]: 3.7; IC50 [16]: 0.26 µM; IC50 [1]: 0.16 µM

Question: Which IC50 [15] does the source give for `CC(C)(C)C1CC(=O)N(CCOc2ccc(F)c(C#N)c2)C1` (racemic) here?
Answer: 0.98 µM

Question: And the IC50 [16]?
Answer: 5.1 µM

Question: What does the source list for `CC1(C2CC(=O)N(CCOc3ccc(F)c(C#N)c3)C2)CCS(=O)(=O)CC1` (racemic)?
Answer: chromatographic logD [4]: 2.8; Stability [19]: 100%

Question: Which chromatographic logD [4] does the source give for `CC1(C2CC(=O)N(CCOc3ccc(F)c(C#N)c3)C2)CCNCC1` (racemic; form 1) here?
Answer: 1.5

Question: Which results are given for `CC1(C2CC(=O)N(CCOc3ccc(F)c(C#N)c3)C2)CCNCC1.Cl` (racemic; form 2)?
Answer: bioavailability [17]: < 5%; logD [4]: 1.5; IC50 (Cytochrome P450 3A4): > 50 µM; Vd [5]: 2 L/kg; Papp [9]: < 0.3 ×10⁻⁶ cm/s; clearance [10]: 15 mL/min/kg; solubility kinetic [12]: 242 µM; fraction unbound at 4 h, 10 µM [13]: 0.81; half-life [14]: 2.4 h

Question: With `CCN(CC)CCN(Cc1ccc(-c2ccc(C(F)(F)F)cc2)cc1)C(=O)Cn1c(SCc2ccc(F)cc2)nc(=O)c2c1CCC2` [DARAPLADIB] as the compound, how does the chromatographic logD [4] read?
Answer: 6.3

Question: What about the solubility kinetic [12] of the same compound?
Answer: 8 µM (≈ 5.33 µg/mL)
